Laboratory results from patent US10287292B2, “CXCR7 antagonists” (CHEMOCENTRYX, INC., priority 2012, dated 2019).

Key:
CXCR7 receptor [1] = target: T1, CXCR7 receptor (Homo sapiens (Human), UniProt P25106); test: Buffer Binding Analysis: displacement of 125I-labeled SDF-1 from CXCR7; settings: 125I SDF-1 displacement, buffer binding medium, MCF-7 and/or MDA-MB-435S CXCR7 transfected cells, 3 hr at 4° C.; read-out: Avg Bind IC50
Protocol: (§1) The compounds were combined with cells expressing the CXCR7 receptor (e.g., MCF cells or cells transfected to express CXCR7) in the presence of the 125 I-labeled SDF-1 chemokine as detailed in Determination of IC50 values. Reagents and Cells (see below). The ability of the compounds to displace the labeled chemokine from the CXCR7 receptor sites at multiple concentrations was then determined with the screening process.
Compounds that were deemed effective modulators were able to displace at least 50% of the SDF-1 from the CXCR7 receptor at concentrations at or below 15 micromolar (μM) but >2500 nM (+); and more preferably at concentrations from >500 nM to ≤2500 nM (++). At present, especially preferred compounds can displace at least 50% of the SDF-1 from the CXCR7 receptor at concentrations at or below 500 nM (+++). Exemplary compounds that met these criteria are reproduced in Table 1 and the Examples above. In Table 1, Avg Bind IC50 refers to the Buffer Binding Analysis described below, while Avg Ser IC50 refers to the Serum Binding Analysis described below. All compounds were prepared as described in the Examples above, or by related methods substituting readily available starting materials.
(§2) ^125I-labeled SDF-1 was purchased from Perkin-Elmer Life Sciences, Inc. (Boston, Mass.). The MCF-7 (adenocarcinoma; mammary gland) cell line was obtained from the American Type Culture Collection (ATCC, Manassas, Va.) or and was cultured in DMEM (Mediatech, Herndon, Va.) supplemented with 10% fetal bovine serum (FBS) (HyClone Logan, Utah) and bovine insulin (0.01 mg/mL) (Sigma. St. Louis, Mo.) at 37° C. in a humidified incubator at a 5% CO2/air mixture. CXCR7 transfected MDA-MB-435S were produced as described below. MDA-MB-435S human breast cancer line, was purchased from ATCC, and cultured in DMEM/10% FBS medium. The complete coding sequence of the gene encoding CXCR7 (a.k.a. CCXCKR2, hRDC1), was isolated from MCF-7 cells using μMACs mRNA isolation kit (Miltenyi Biotec, Auburn, Calif.). DNA contamination was removed by DNase digestion via RNeasy columns (Qiagen, Inc., Valencia, Calif.) and cDNA was generated using GeneAmp RNA PCR Core Kit (Applied Biosystems, Foster City. Calif.). PCR of cDNA samples was performed using Taq PCR Master Mix kit (Qiagen. Inc.) and hRDC1 primers harboring 5′ and 3′ Not I sites (hRDC1F 5′ […]-3, hRDC1R 5′-[…]-3′) Not I digested PCR product was ligated into Not I digested pcDNA3.1(+)(Invitrogen, Carlsbad, Calif.) and screened for orientation and sequence confirmed. Plasmid DNA was then isolated from overnight bacterial cultures by Maxiprep (Qiagen, Inc.). Plasmid DNA (10 μg) was added to MDA-MB-435s cells and cells were electroporated (0.22 kV, 960 uF) via Gene Pulser (Biorad laboratories, Hercules, Calif.). 48 hr post-electroporation, cells were transferred to selection medium (600 ug/ml G418).
(§3) Target compounds can be tested to determine their ability to bind with CXCR7 sites on MCF-7 and/or MDA-MB-435S CXCR7 transfected cells. Efficiency-maxim/zed radioligand binding using filtration protocols as described in Dairaghi D J, et al., HHV8-encoded vMIP-I selectively engages chemokine receptor CCR5. Agonist and antagonist profiles of viral chemokines., J. Biol. Chem. 1999 Jul. 30; 274(31): 21569-74 and Gosling J. et al., Cutting edge: identification of a novel chemokine receptor that binds dendritic cell-and T cell-active chemokines including ELC. SLC, and TECK., J. Immunol. 2000 Mar. 15; 164(6):2851-6 was used.
In these assays, MCF-7 and/or MDA-MB-435S cells are interrogated with the target compounds and the ability of these compounds to displace ^125I radiolabeled SDF-1 assessed using the protocol described in Dairaghi and Gosling. […]

CXCR7 receptor [2] = target: T1, CXCR7 receptor; test: Serum Binding Analysis: displacement of 125I-labeled SDF-1 from CXCR7 in 100% human serum; settings: 125I SDF-1 displacement in 100% human serum, MCF-7 and/or MDA-MB-435S CXCR7 transfected cells, 3 hrs at 4° C.; read-out: Avg Ser IC50
Protocol: as §1
In Table 1, Avg Bind IC50 refers to the Buffer Binding Analysis described below, while Avg Ser IC50 refers to the Serum Binding Analysis described below. All compounds were prepared as described in the Examples above, or by related methods substituting readily available starting materials.
as §2
as §3, with “In order to more properly assess the binding efficacy of the compounds, radioligand binding assays were carried out in the presence of 100% human serum to more accurately reflect the in vivo environment. […] Target” for “Target”, “compounds were” for “compounds can be”, “Gosling J,” for “Gosling J.”, “dendritic cell- and” for “dendritic cell-and”, “including ELC,” for “including ELC.”, “and TECK,” for “and TECK.,”
In these assays, MCF-7 and/or MDA-MB-435S cells were interrogated with the target compounds and the ability of these compounds to displace 125 I radiolabeled SDF-1 was assessed using the protocol described in Dairaghi and Gosling. The target compounds were added to the plate to the indicated concentration followed by addition of cells and radiolabeled chemokine (125I SDF-1), both in the following medium (human AB serum with 10 mM HEPES added to stabilize at pH 7.4). All assays were then incubated for 3 hrs at 4° C. with gentle agitation.

T1 sequence (P25106 whole entry): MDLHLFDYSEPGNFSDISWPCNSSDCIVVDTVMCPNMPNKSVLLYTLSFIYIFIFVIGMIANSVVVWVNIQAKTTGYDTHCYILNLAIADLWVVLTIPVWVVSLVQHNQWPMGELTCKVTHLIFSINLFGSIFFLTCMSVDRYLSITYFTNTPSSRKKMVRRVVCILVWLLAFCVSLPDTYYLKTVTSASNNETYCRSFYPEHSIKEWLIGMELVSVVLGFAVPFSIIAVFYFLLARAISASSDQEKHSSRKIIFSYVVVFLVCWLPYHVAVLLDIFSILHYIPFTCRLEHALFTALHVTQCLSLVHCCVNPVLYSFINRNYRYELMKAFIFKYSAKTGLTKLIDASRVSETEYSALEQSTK

SMILES	IC50 (CXCR7 receptor [1]) [nM]	IC50 (CXCR7 receptor [2]) [nM]
O=C(N[C@H]1CCN(c2nccn3ccnc23)C1)c1ncn(-c2ccccc2)n1 [Compound 1.091]	≤ 500	≤ 500
O=C(N[C@H]1CCN(c2nccn3ccnc23)C1)c1ccn(-c2ccc(F)cc2)n1 [Compound 1.092]	≤ 500	≤ 500
Cc1cc(Cl)ccc1-n1ccc(C(=O)N[C@H]2CCN(c3nccn4cccc34)C2)n1 [Compound 1.094]	≤ 500	≤ 500
O=C(N[C@H]1CCN(c2nccn3cccc23)C1)c1csc(-c2ccc(F)cc2)n1 [Compound 1.096]	≤ 500	≤ 500
Cc1ccn2ccnc(N3CC[C@H](NC(=O)c4ccn(-c5cccc(F)c5)n4)C3)c12 [Compound 1.099]	≤ 500	≤ 500
Cc1ccn2ccnc(N3CC[C@H](NC(=O)c4ccn(-c5ccc(Cl)c(F)c5)n4)C3)c12 [Compound 1.100]	≤ 500	2500 to 15000
Cc1ccn2ccnc(N3CC[C@H](NC(=O)c4ccn(-c5ccccc5CC#N)n4)C3)c12 [Compound 1.101]	≤ 500	500 to 2500
O=C(N[C@H]1CCN(c2nccn3ccnc23)C1)c1ccn(-c2ccc(Cl)cc2)n1 [Compound 1.102]	≤ 500	≤ 500
Cc1cc(Cl)ccc1-n1ccc(C(=O)N[C@H]2CCN(c3nccn4ccc(C)c34)C2)n1 [Compound 1.103]	≤ 500	500 to 2500
Cc1ccn2ccnc(N3CC[C@H](NC(=O)c4ccn(-c5ccc(Cl)cc5)n4)C3)c12 [Compound 1.104]	≤ 500	2500 to 15000
Cc1ccn2ccnc(N3CC[C@H](NC(=O)c4ccn(-c5ccc(F)cc5)n4)C3)c12 [Compound 1.106]	≤ 500	500 to 2500
Cc1ccn2ccnc(N3CC[C@H](NC(=O)c4csc(-c5ccc(F)cc5)n4)C3)c12 [Compound 1.108]	≤ 500	500 to 2500
Cc1ccccc1-n1ccc(C(=O)N[C@H]2CCN(c3nccn4ccc(C)c34)C2)n1 [Compound 1.109]	≤ 500	500 to 2500
Cc1ccn2ccnc(N3CC[C@H](NC(=O)c4ncc(-c5ccccc5)cn4)C3)c12 [Compound 1.110]	≤ 500	500 to 2500
O=C(N[C@H]1CCN(c2nccn3cnnc23)C1)c1ccn(-c2ccc(Cl)cc2)n1 [Compound 1.112]	≤ 500	500 to 2500
O=C(N[C@H]1CCN(c2nccn3cccc23)C1)c1ccn(-c2ccc(Cl)c(F)c2)n1 [Compound 1.114]	≤ 500	≤ 500
Cc1ccn2ccnc(N3CC[C@H](NC(=O)c4ncn(-c5ccccc5)n4)C3)c12 [Compound 1.117]	≤ 500	≤ 500
O=C(N[C@H]1CCN(c2nccn3cccc23)C1)c1ncn(-c2ccc(Cl)cc2)n1 [Compound 1.119]	≤ 500	500 to 2500
O=C(N[C@H]1CCN(c2nccn3cnnc23)C1)c1coc(-c2ccc(F)cc2)n1 [Compound 1.122]	≤ 500	≤ 500
O=C(N[C@H]1CCN(c2nccn3cnnc23)C1)c1ncn(-c2ccccc2)n1 [Compound 1.127]	≤ 500	≤ 500
O=C(N[C@H]1CCN(c2nccn3cccc23)C1)c1ccn(-c2ccc(Cl)cc2)n1 [Compound 1.129]	≤ 500	≤ 500

Now from value to compound:

IC50 (CXCR7 receptor [1]) [nM]	IC50 (CXCR7 receptor [2]) [nM]	SMILES
≤ 500	≤ 500	O=C(N[C@H]1CCN(c2nccn3cccc23)C1)c1ncc(-c2ccccc2)cn1 [Compound 1.093]
≤ 500	≤ 500	O=C(N[C@H]1CCN(c2nccn3cccc23)C1)c1coc(-c2ccc(F)cc2)n1 [Compound 1.095]
≤ 500	500 to 2500	Cc1ccn2ccnc(N3CC[C@H](NC(=O)c4csc(-c5ccccc5)n4)C3)c12 [Compound 1.105]
≤ 500	500 to 2500	Cc1ccn2ccnc(N3CC[C@H](NC(=O)c4coc(-c5ccccc5)n4)C3)c12 [Compound 1.107]
≤ 500	500 to 2500	Cc1ccn2ccnc(N3CC[C@H](NC(=O)c4noc(-c5ccccc5)n4)C3)c12 [Compound 1.111]
≤ 500	≤ 500	O=C(N[C@H]1CCN(c2nccn3cccc23)C1)c1ccn(-c2cccc(F)c2)n1 [Compound 1.113]
≤ 500	≤ 500	N#CCc1ccccc1-n1ccc(C(=O)N[C@H]2CCN(c3nccn4cccc34)C2)n1 [Compound 1.115]
≤ 500	500 to 2500	Cc1ccn2ccnc(N3CC[C@H](NC(=O)c4coc(-c5ccc(F)cc5)n4)C3)c12 [Compound 1.116]
≤ 500	≤ 500	Cc1ccccc1-n1cnc(C(=O)N[C@H]2CCN(c3nccn4cccc34)C2)n1 [Compound 1.118]
≤ 500	≤ 500	O=C(N[C@H]1CCN(c2nccn3cccc23)C1)c1noc(-c2ccccc2)n1 [Compound 1.120]
≤ 500	≤ 500	Cc1ccccc1-n1ccc(C(=O)N[C@H]2CCN(c3nccn4cccc34)C2)n1 [Compound 1.123]
≤ 500	≤ 500	O=C(N[C@H]1CCN(c2nccn3cccc23)C1)c1csc(-c2ccccc2)n1 [Compound 1.124]
≤ 500	≤ 500	O=C(N[C@H]1CCN(c2nccn3cccc23)C1)c1coc(-c2ccccc2)n1 [Compound 1.125]
≤ 500	≤ 500	O=C(N[C@H]1CCN(c2nccn3cccc23)C1)c1ncn(-c2ccccc2)n1 [Compound 1.126]
